Assay results reported in article PMC8224775, “Five Tetramic Acid Derivatives Isolated from the Iranian Fungus Colpoma quercinum CCTU A372” (Biomolecules, 2021).
Values after ≈ are worked out from the molar mass of the structure shown. Like-named read-outs stand apart in the source and are kept apart here.

Assays:
Test in all cases: Antimicrobial serial dilution assay (MIC)
Type in all cases: cell-based
Bacillus subtilis DSM 10 = conditions: overnight
Procedure: (§1) Antimicrobial activity was determined by our established protocol, according to Becker et al.. In general, all of the pure compounds were dissolved in MeOH with a concentration of 1 mg/mL. Assessment of the antimicrobial activity was determined using the serial dilution assay method to calculate the minimum inhibitory concentration (MIC). In this method, the compounds were diluted in a range between 67 and 0.5 µg/mL in 96 well-plate and incubated with the test organism overnight. The next day, growth of the test organisms was visually observed, and MIC was determined in the lowest concentration where a clear zone (no growth of test organism) was observed. In our attempt for novel anti-infective compounds, an established standard protocol using various organisms representing a broad spectrum of pathogens of clinical interest, as well as sensitive indicator strains, was used (bacteria: Bacillus subtilis DSM 10, Staphylococcus aureus DSM 346, Acinetobacter baumanii DSM 30008, Chromobacterium violaceum DSM 30191, Escherichia coli DSM 1116 and Pseudomonas aeruginosa PA14; mycobacteria: Mycobacterium smegmatis ATCC 700084 and fungi: Candida albicans DSM 1665, Schizosaccharomyces pombe DSM 70572, Mucor hiemalis DSM 2656, Wickerhamomyces anomala DSM 6766 and Rhodotorula glutinis DSM 10134). Methanol as a solvent to dissolve the pure compounds was used as the negative control. Oxytetracycline, ciprofloxacin, gentamycin, and kanamycin were used as positive controls against bacteria, whereas nystatin was used against fungi. A detailed experimental procedure can be found in the SI.
(§2) Protocol: Antimicrobial Activity Assay
(§3) The assay was conducted as a minimum inhibitory concentration (MIC) assay in 96-well round- bottom microtiter plates using the parameters summarized in Table S1 and as already described in [S1]. Stocks of the test organisms were generated by growing the organisms overnight in 50 mL shaking flasks filled with 25 mL of the growth medium at 140r p m ( media and temperatures see Table S1). If the organisms were well grown the next day, which was checked by the occurrence of an optical density (OD) […] of the suspension (OD600 nm for bacteria, OD548 nm for fungi and M. smegmatis), aliquots of these were stored in 1.5 mL reaction tubes in a freezer at −80 °C for up to 12 months. Upon use, aliquots were unthawed and the OD of the suspension measured and adjusted by diluting with the respective growth medium. OD600 nm was adjusted to 0.01 and OD548 nm to 0.1. Subsequently, 150 μ L of the adj usted suspensions were added to all wells of a 96-well microtiter plate (one test organism per plate). In row A, additional 130 μ L of suspensions plus 20 μ L of the test compounds (1 mg/mL) and the controls (one compound/column) were added. MeOH was used as negative controls, while different positive controls (references) were used for the test organisms (see Table S1). Then, starting from row A, 150 μ L of t he suspension were transferred to the next row, the contents thoroughly mixed, and 150 μ L transferred to the following row. The remaining 150 μ L after row H were discarded. […]
(§4) of the test compounds, ranging from 66.7 μg/mL in row A to 0.52 μ g/mL in row H. The microtiter plates were then incubated overnight on a microplate shaker at 800 rpm at 30 or 37 °C (see Table S1) and were visually evaluated the next day. The MIC is defined as the lowest concentration where no growth of the test organism (clear zone) was observed. A lower MIC thus corresponds to a higher antimicrobial activity of the test compound.
Table S1: MIC assay experiment parameters test organism strain No growth incubation positive control
Bacillus subtilis DSM10 MHB1 30 oxytetracyclin 1.0mg/ mL […]
(§5) Candidaa lbicans DSM1665 MYC3 30 nystatin 1.0mg/ mL
(§6) Schizosaccharomyces DSM70572 MYC3 30 nystatin 1.0mg/ mL
(§7) Mucor hiemalis DSM2656 MYC3 30 nystatin 1.0mg/ mL
(§8) Wickerhamomyces DSM6766 MYC3 30 nystatin 1.0mg/ mL
Rhodotorula glutinis DSM10134 MYC3 30 nystatin 1.0mg/ mL […]

[1] = tested on: Staphylococcus aureus DSM 346; conditions: serial dilution 67 to 0.5 µg/mL, overnight
Procedure: as §1, §2, §3
as §4, with “A lower MIC thus corresponds to a higher antimicrobial activity of the test compound.” left out

[2] = tested on: Acinetobacter baumanii DSM 30008; conditions: serial dilution 67 to 0.5 µg/mL, overnight
Procedure: as §1, §2, §3, §4
(§9) Table S1: MIC assay experiment parameters test organism strain No growth incubation positive control […]
as §5, §6, §7, §8
(§10) Rhodotorula glutinis DSM10134 MYC3 30 nystatin 1.0mg/ mL
(§11) 1 MHB: Müller-Hinton Broth (SN X927.1, CarlRoth GmbH, Karlsruhe, Germany) […]

Mucor hiemalis DSM 2656 = conditions: overnight
Procedure: as §1, §2, §3, §4, §9, §5, §6, §7, §8, §10, §11

Pichia anomala DSM 6766 = conditions: serial dilution 67 to 0.5 µg/mL, overnight
Procedure: as §1, §2, §3, §4, §9, §5, §6, §7, §8, §10, §11

[3] = tested on: Rhodotorula glutinis DSM 10134; conditions: serial dilution 67 to 0.5 µg/mL, overnight
Procedure: as §1, §2, §3, §4, §9, §5, §6, §7, §8, §10, §11

[4] = serial dilution 67 to 0.5 µg/mL

| SMILES | MIC (Bacillus subtilis DSM 10; [4]) | MIC [1] | MIC [2] | MIC (Mucor hiemalis DSM 2656; [4]) | MIC (Pichia anomala DSM 6766) | MIC [3] | MIC (Bacillus subtilis DSM 10; DSM10, serial dilution 67 to 0.5 µg/mL, read-out: MIC) | MIC (Mucor hiemalis DSM 2656; DSM2656, serial dilution 67 to 0.5 µg/mL, read-out: MIC) |
| --- | --- | --- | --- | --- | --- | --- | --- | --- |
| CC1=CC2CC(C)CCC2C2(C)C(=O)OC(C(=O)O)C(C)C12 (centres unmarked) [compound 3, Colposetin C] | n.i | n.i | n.i | n.i | n.i | n.i | – | – |
| CC(=O)OC(C(=O)O)C(C)C1C(C)=CC2CC(C)CCC2C1(C)C(O)=C1C(=O)C(C)N(C)C1=O (centres unmarked) [compound 1, Colposetin A] | n.i | n.i | n.i | n.i | n.i | n.i | – | – |
| CC(C=CCC(C)CCC=C(C)C(=O)C1=C(O)C(C)N(C)C1=O)=CC(C)C(O)C(=O)O (centres unmarked) [compound 4, Colpomenoic acid A] | n.i | n.i | n.i | n.i | n.i | n.i | – | – |
| CCC(C(=O)O)C1C(C)=CC2CC(C)CCC2C1(C)C(O)=C1C(=O)C(C)N(C)C1=O (centres unmarked) [compound 2, Colposetin B] | – | – | n.i | – | n.i | n.i | 67 µg/mL (≈ 160 µM) | 67 µg/mL (≈ 160 µM) |
| CC(C=CCC(C)C=CC=C(C)C(=O)C1=C(O)C(C)N(C)C1=O)=CC(C)C(O)C(=O)O (centres unmarked) [compound 5, Colpomenoic acid B] | n.i | n.i | n.i | n.i | n.i | n.i | – | – |
